According to US20050009812A1, “Remedies for stress diseases comprising mitochondrial benzodiazepine receptor antagonists” (priority 2001, published 2005):

Columns and labels:
[1] = system: rat adrenocortical mitochondria; assay: Determination of pregnenolone in rat adrenocortical mitochondria; assay type: biochemical; settings: for Amount of pregnenolone production (%): 10 μmol/L, DMSO assumed 100, n=5; for MBR agonist or antagonist as judged by effect on pregnenolone production: compared with DMSO treated group; for pregnenolone content relative to DMSO treated group: final concentration of the compound 1 μmol/L
MBR [2] = target: T1, MBR (Rattus norvegicus, UniProt P16257); assay: MBR antagonist activity: FGIN1-27-stimulated pregnenolone production in rat adrenocortical mitochondria; assay type: biochemical; settings: FGIN1-27 1 nmol/L; MBR antagonist 0.1 pmol/L to 1 μmol/L; FIGS. 1 and 2
Text: Horizontal axis represents the concentrations of the compound.

[3] = system: stress-loaded male Wistar rats; assay: Anti-stress effect: number of fecal pellets in psychological (water aversive) stress model; assay type: in vivo, rat; settings: for number of fecal pellets: p.o., male Wistar rats, psychological (water aversive) stress, counted 1 h after start of stress loading, mean ± spread; for number of fecal pellets / effect on stress-induced increase in the number of fecal pellets: n=10/group; for effect on stress-induced increase in the number of fecal pellets: oral administration 30 min before stress loading, counted after 1 h; for effect on number of fecal pellets vs vehicle (significance, all doses): all tested p.o. doses vs vehicle, stress-loaded male Wistar rats
Method: Psychological stress was loaded to male Wistar rats (Brain Res., 641, 21-28 (1994)). Platform was located in the center of the container and water was collected to 10 cm in height. Thirty min after oral administration of vehicle or the compound, stress loading was started. One hour after, number of fecal pellets were counted (n=10/group). The rats without administration and stress-loading rarely defecated in 1 h.

MBR [4] = target: T1, MBR; assay: Receptor binding: [3H]PK11195 binding to rat brain membrane preparation; set-up: The brains without cerebellum were homogenized in ice-cold 50 mmol/L Tris-HCl buffer (pH7.4); from tissue; host or cells: male Wistar rat brain without cerebellum, crude membrane pellet; settings: competition with [3H]PK11195 1 nmol/L, Cheng & Prusoff
Method: Experiment 1: Receptor Binding
The affinity of the compound to MBR was determined using rat brain membrane preparation. Male Wistar rats were decapitated. After extirpation of the brain, cerebellum was removed. The brains without cerebellum were homogenized in ice-cold 50 mmol/L Tris-HCl buffer (pH7.4). The homogenate was centrifuged at 12,000 g for 20 min (4° C.), then supernatant was discarded. The residual pellet was washed in the same buffer. The pellet resuspended in 50 mmol/L Tris-HCl buffer (pH7.4) and adjusted to about 1 mg/mL was used as the rat brain membrane preparation for binding assay.
To determine the amount of non-specific binding, 20 μmol/L of PK11195 was added in place of DMSO and incubate for 1 h. The reaction was terminated by rapid filtration on GF/B filter soaked with 0.3% polyethyleneimine using cell harvester, then the filter was washed twice with 50 mmol/L Tris-HCl buffer (pH7.4). After dried in the oven, the radioactivity on the filer was measured by liquid scintillation counter. The data were analyzed using analysis soft KELL (Ver.6, BIOSOFT).
To determine the amount of non-specific binding, 20 μmol/L of PK11195 was added in place of DMSO. And to determine the affinity of the invention, 10 pmol/L to 1 μmol/L of the compound dissolved in DMSO was added in place of DMSO. The reaction was terminated as above described, then radioactivity on the filer was measured by liquid scintillation counter. […] The inhibitory constant (Ki value) was derived according to the equation of Cheng & Prusoff (Biochem. Pharmacol., 22, 3099-3108, 1973).

Row | Structure (SMILES) | Amount of pregnenolone production (%) [1] [%] | MBR agonist or antagonist as judged by effect on pregnenolone production [1] | number of fecal pellets ([3]; 3 mg/kg) | number of fecal pellets ([3]; 30 mg/kg) | effect on stress-induced increase in the number of fecal pellets [3] | Ki (MBR [4]) [nM] | other results
1 | CCC(C)N(C)C(=O)c1cc2ccccc2c(-c2ccccc2Cl)n1 (stereo not shown) [PK11195, 1-(2-chlorophenyl)-N-methyl-N-(1-methylpropyl)-3-isoquinolinecarboxamide] | 101.82 ± 1.64 | MBR antagonists which hardly effect on it | 6.6 ± 0.97 | 5.5 ± 0.81 | produced significant effects | – | antagonistic effect on FGIN1-27-stimulated pregnenolone production (MBR [2]): antagonize the steroid production stimulated by MBR agonist; number of fecal pellets ([3]; 0.3 mg/kg): 6.4 ± 0.76
2 | Clc1ccc(Cl)c(Cc2nnnn2-c2cccc(Cl)c2Cl)c1 [2(71), 5-(2,5-dichlorobenzyl)-1-(2,3-dichlorophenyl)-1H-1,2,3,4-tetrazole] | – | – | – | – | – | 0.08 | –
3 | CCCCCCN(CCCCCC)C(=O)Cc1c(-c2ccc(F)cc2)[nH]c2ccccc12 [FGIN1-27, 2-[2-(4-fluorophenyl)-1H-indole-3-yl]-N,N-dihexylacetamide] | – | MBR agonists which increase pregnenolone production | – | – | – | – | pregnenolone content relative to DMSO treated group [1]: 1.37 times
4 | CN1C(=O)CN=C(c2ccc(Cl)cc2)c2cc(Cl)ccc21 [Ro5-4864, 7-chloro-5-(4-chlorophenyl)-1-methyl-2-oxo-2,3-dihydro-1H-benzodiazepine] | 123.59 ± 5.41 | MBR agonists which increase pregnenolone production | 8.9 ± 1.16 | 8.6 ± 0.91 | did not produce significant effects | – | number of fecal pellets ([3]; 10 mg/kg): 9.2 ± 0.98; effect on number of fecal pellets vs vehicle (significance, all doses) [3]: No significant effect in any dose.
5 | Fc1cccc(Cl)c1Cn1nnnc1-c1ccccc1C(F)(F)F [2(14), 1-(2-chloro-6-fluorobenzyl)-5-(2-trifluoromethylphenyl)-1H-1,2,3,4-tetrazole] | – | – | 6.6 ± 0.76 | 5.1 ± 0.78 | – | 3.3 | pregnenolone content relative to DMSO treated group [1]: 0.98 times; antagonistic effect on FGIN1-27-stimulated pregnenolone production (MBR [2]): antagonize the steroid production stimulated by MBR agonist; number of fecal pellets ([3]; 0.3 mg/kg): 6.1 ± 0.82
6 | Clc1cccc(-c2nnnn2Cc2cc(Cl)ccc2OCc2ccccc2)c1 [2(105), 1-(2-benzyloxy-5-chlorobenzyl)-5-(3-chlorophenyl)-1H-1,2,3,4-tetrazole] | – | – | – | – | – | 0.73 | –
7 | O=C(NCc1ccc(F)cc1C(F)(F)F)c1cccc(Cl)c1Cl [1(16), N-(4-fluoro-2-trifluoromethylbenzyl)-2,3-dichlorobenzamide] | – | – | – | – | – | 0.19 | –
8 | Clc1cccc(Cc2nnnn2-c2cccc(Cl)c2Cl)c1Cl [2(74), 5-(2,3-dichlorobenzyl)-1-(2,3-dichlorophenyl)-1H-1,2,3,4-tetrazole] | – | – | – | – | – | 0.16 | –
9 | O=C(NCc1cc(F)ccc1OCc1ccccc1)c1cccc(Cl)c1Cl [1(110), N-(2-benzyloxy-5-fluorobenzyl)-2,3-dichlorobenzamide] | – | – | – | – | – | 0.22 | –
10 | CCN(Cc1ccccc1)C(=O)Cn1c(=O)n(C)c2cnc(-c3ccccc3)nc21 [AC-5216, N-benzyl-N-ethyl-2-(7-methyl-8-oxo-2-phenyl-7,8-dihydro-9H-purin-9-yl)acetamide] | 122.65 ± 7.56 | MBR agonists which increase pregnenolone production | 7.5 ± 0.63 | 9.3 ± 0.94 | did not show an effect | – | MBR agonist or antagonist as judged by effect on pregnenolone production ([1]; listed as N-benzyl-N-ethyl-2-(7-methyl-8-oxo-2-phenyl-7,8-dihydro-9H-purin-9-yl)acetamide): MBR antagonist; number of fecal pellets ([3]; 0.3 mg/kg): 9.6 ± 0.74; effect on number of fecal pellets vs vehicle (significance, all doses) [3]: No significant effect in any dose.; effect on stress-induced increase in the number of fecal pellets ([3]; listed as AC-5261): did not produce significant effects
11 | CCCN(CCC)C(=O)c1c(-c2ccc(Cl)cc2)nc2cc(Cl)cc(Cl)n12 [CB34, 5,7-dichloro-2-(4-chlorophenyl)-3-dipropylaminocarbonylimidazo[1,2-a]pyridine] | 131.36 ± 5.38 | MBR agonists which increase pregnenolone production | 10.2 ± 0.96 | 8.6 ± 1.00 | did not produce significant effects | – | number of fecal pellets ([3]; 10 mg/kg): 7.6 ± 0.93; effect on number of fecal pellets vs vehicle (significance, all doses) [3]: No significant effect in any dose.
